Read-outs that look alike come from different tables or passages of the source.
Tests used:
C57BL/6J = assay: Randomized controlled trial in mice, compounds in Lipoderm applied daily to right flank (Example 1); assay type: in vivo; details: for Local increase in subcutaneous fat / asymmetry between flanks: following 24 days of therapy, right flank treated, left flank untreated
Protocol: The arms were as follows: vehicle (Lipoderm®), a thiazolidinedione (pioglitazone), harmine, an orexigenic compound (megestrol acetate), and efavirenz. Each compound was combined in the percutaneous Lipoderm® formulation at an equimolar concentration (5 mM). The Lipoderm® vehicle is adapted to deliver the respective compound percutaneously, i.e., across the skin and into subcutaneous fat. The formulations were applied daily to the right flank of each animal, whereas the left flank was used as an untreated control.
A randomized controlled trial was conducted on C57BL/6J. Male mice approximately six weeks old were prospectively randomized into groups and assigned to the following treatment conditions (n=5 animals per group):
Animals were shaved and depilated over the flanks at the start of the study.
Animals were kept in identical conditions and fed ab libitum with a standardized high-fat diet (70% kcal fat). Animals were weighed three times weekly. Following 24 consecutive days of treatment, mice were sacrificed and samples of skin and adjacent fat from the treated flanks are taken for histologic examination.

patient = assay: Clinical application for augmentation of the buttocks (Example 9); assay type: in vivo, human; details: 10 mg/ml in Lipoderm daily, after 6 months; contemplated
Protocol: The following description exemplifies a clinical application of percutaneous administration of an orexigenic pregnane derivative for augmentation of the buttocks. A female or male patient wishes to undergo a buttocks augmentation procedure but is concerned about the risks of surgery. The physician prescribes a daily application of megestrol acetate (for example, 10 mg/ml in Lipoderm®) to the buttocks.

Gottingen minipigs = details: for Increase over Placebo in subcutaneous fat thickness, MEAN: mean of 24 sites, 42 days
Protocol: (§1) A prospective controlled trial was performed in 4 Gottingen minipigs (2 males, 2 females). Hair on the back was clipped. […] An equivalent Vehicle Treatment Area was marked on the left side of the animal, such that the two treatment areas were anatomically equivalent. […] After 42 days of treatment, plasma pharmacokinetics (PK) was assessed on all animals by Liquid Chromatography/Tandem Mass Spectrometry. Necropsy was done and samples of skin, subcutaneous fat, and muscle were collected en bloc from each treatment area in a controlled fashion. […] Table 5 presents the thicknesses of subcutaneous fat on each of six treated and control (vehicle) locations, by animal. […] Table 6 compares plasma PK following percutaneous administration (present study) with plasma PK following oral administration in humans.

[1] = Plasma pharmacokinetics after percutaneous administration in minipigs (Example 4); details: percutaneous versus oral
Protocol: as §1

O=C1Nc2ccc(Cl)cc2[C@@](C#CC2CC2)(C(F)(F)F)O1 [Efavirenz]
Local increase in subcutaneous fat / asymmetry between flanks (C57BL/6J): did not exhibit any increase in fat or asymmetry between the two flanks

COc1ccc2c(c1)[nH]c1c(C)nccc12 [Harmine]
Local increase in subcutaneous fat / asymmetry between flanks (C57BL/6J): did not exhibit any increase in fat or asymmetry between the two flanks

CC(=O)O[C@]1(C(C)=O)CC[C@H]2[C@@H]3C=C(C)C4=CC(=O)CC[C@]4(C)[C@H]3CC[C@@]21C [Megestrol acetate]
Relative skin fold thickness of left and right flanks (C57BL/6J; examined on Day 24): asymmetric, with thicker skin folds on the treated flanks compared to the untreated flanks | Local increase in subcutaneous fat / asymmetry between flanks (C57BL/6J): exhibited local increases in subcutaneous fat | Thickness of skin fold, right (treated) flank (C57BL/6J; representative mouse, 24 days of treatment, left (untreated) flank about 2 mm): about 4 mm | Buttocks size, clinical appearance (patient): the buttocks appear clinically larger

CN(CCOc1ccc(CC2SC(=O)NC2=O)cc1)c1ccccn1 (centres unmarked) [Rosiglitazone]
Increase over Placebo in subcutaneous fat thickness, MEAN (Gottingen minipigs): 48% | Increase over Placebo in subcutaneous fat thickness, MEAN (Gottingen minipigs; listed as rosiglitazone): 48% | Tolerability (Gottingen minipigs; minipig, in vivo): well tolerated, with no evidence of skin irritation or other clinical observations | Peak plasma concentration, lower than for oral (systemic) therapy [1]: about 3400 fold | Plasma exposure, lower than for oral (systemic) therapy [1]: ~1300 fold

Reference: patent US8883834B2, “Methods and compositions for locally increasing body fat” (Topokine Therapeutics, Inc., priority 2012, dated 2014)
